ChEMBL document CHEMBL4630907 (2021)
Activity calls are given as the source filed them.

Key:
[1] = biological target: Histamine H3 receptor (Homo sapiens) (UniProt Q9Y5N1); conditions: Compound concentration 10.0 uM
[2] = biological target: T1, Bromodomain-containing protein 3 (Homo sapiens, UniProt Q15059); assay: BRD3(1) DiscoverX BROMOscan
[3] = biological target: T2, 5-hydroxytryptamine receptor 1B (Homo sapiens, UniProt P28222); conditions: Compound concentration 10.0 uM
[4] = biological target: Bromodomain-containing protein 2 (Homo sapiens, UniProt P25440); assay: TR-FRET assay (BRD2 BD2)
[5] = biological target: Alpha-1B adrenergic receptor (Homo sapiens) (UniProt P35368); conditions: Compound concentration 10.0 uM
[6] = biological target: T1, Bromodomain-containing protein 3; assay: BRD3 Bromoscan (DiscoverX)
[7] = biological target: Nucleosome-remodeling factor subunit BPTF (Homo sapiens, UniProt Q12830); assay: FALZ DiscoverX BROMOscan
[8] = biological target: Histamine H4 receptor (Homo sapiens) (UniProt Q9H3N8); conditions: Compound concentration 10.0 uM
Peregrin = Peregrin (Homo sapiens, UniProt P55201); assay: BRPF1 DiscoverX BROMOscan
[9] = biological target: 5-hydroxytryptamine receptor 2C (Homo sapiens) (UniProt P28335); conditions: Compound concentration 10.0 uM
[10] = biological target: Beta-3 adrenergic receptor (Homo sapiens) (UniProt P13945); conditions: Compound concentration 10.0 uM
Beta-3 adrenergic receptor (Homo sapiens), sequence (P13945 whole entry, looked up): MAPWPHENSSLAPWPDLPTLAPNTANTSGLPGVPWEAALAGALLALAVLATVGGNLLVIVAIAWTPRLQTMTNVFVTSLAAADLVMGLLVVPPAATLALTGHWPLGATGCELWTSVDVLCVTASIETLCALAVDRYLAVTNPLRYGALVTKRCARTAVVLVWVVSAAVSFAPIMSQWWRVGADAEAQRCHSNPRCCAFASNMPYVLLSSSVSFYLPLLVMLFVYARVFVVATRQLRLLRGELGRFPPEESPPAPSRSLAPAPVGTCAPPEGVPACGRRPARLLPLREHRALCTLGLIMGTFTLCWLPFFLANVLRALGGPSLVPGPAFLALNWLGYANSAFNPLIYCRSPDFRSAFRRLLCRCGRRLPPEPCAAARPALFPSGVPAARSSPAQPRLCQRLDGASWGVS

Cannabinoid receptor 2 = Cannabinoid receptor 2 (Homo sapiens, UniProt P34972); assay: (§1) Cross screening panel
Cannabinoid receptor 2, sequence (P34972 whole entry): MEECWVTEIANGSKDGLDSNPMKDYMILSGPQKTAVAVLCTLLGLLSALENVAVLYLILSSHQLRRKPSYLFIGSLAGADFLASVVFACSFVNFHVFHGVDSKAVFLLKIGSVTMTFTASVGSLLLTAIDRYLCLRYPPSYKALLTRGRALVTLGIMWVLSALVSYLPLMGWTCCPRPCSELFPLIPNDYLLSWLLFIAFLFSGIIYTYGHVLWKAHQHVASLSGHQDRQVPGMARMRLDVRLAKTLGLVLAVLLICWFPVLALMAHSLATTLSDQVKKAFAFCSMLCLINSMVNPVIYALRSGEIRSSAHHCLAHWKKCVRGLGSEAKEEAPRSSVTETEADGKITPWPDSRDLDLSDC

[11] = biological target: Voltage-dependent L-type calcium channel subunit alpha-1C (Homo sapiens, UniProt Q13936); assay: as §1
[12] = biological target: T3, Kappa-type opioid receptor (Homo sapiens, UniProt P41145); assay: as §1
T3 sequence (P41145 whole entry): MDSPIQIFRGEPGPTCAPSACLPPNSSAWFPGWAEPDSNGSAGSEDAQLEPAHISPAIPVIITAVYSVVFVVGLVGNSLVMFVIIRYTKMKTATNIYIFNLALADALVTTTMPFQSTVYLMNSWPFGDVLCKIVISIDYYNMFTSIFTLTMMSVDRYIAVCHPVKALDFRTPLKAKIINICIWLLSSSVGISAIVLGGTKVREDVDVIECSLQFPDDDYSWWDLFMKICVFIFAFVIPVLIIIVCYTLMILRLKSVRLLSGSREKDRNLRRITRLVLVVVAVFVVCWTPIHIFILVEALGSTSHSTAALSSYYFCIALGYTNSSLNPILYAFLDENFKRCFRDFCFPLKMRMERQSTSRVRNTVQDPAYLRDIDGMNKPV

[13] = biological target: Glutamate receptor ionotropic, NMDA 2B (Homo sapiens, UniProt Q13224); assay: as §1
[14] = biological target: T2, 5-hydroxytryptamine receptor 1B; assay: as §1
Aurora kinase B = Aurora kinase B (Homo sapiens, UniProt Q96GD4); assay: as §1
[15] = biological target: T4, 5-hydroxytryptamine receptor 3A (Homo sapiens, UniProt P46098); assay: as §1
T4 sequence (P46098 whole entry): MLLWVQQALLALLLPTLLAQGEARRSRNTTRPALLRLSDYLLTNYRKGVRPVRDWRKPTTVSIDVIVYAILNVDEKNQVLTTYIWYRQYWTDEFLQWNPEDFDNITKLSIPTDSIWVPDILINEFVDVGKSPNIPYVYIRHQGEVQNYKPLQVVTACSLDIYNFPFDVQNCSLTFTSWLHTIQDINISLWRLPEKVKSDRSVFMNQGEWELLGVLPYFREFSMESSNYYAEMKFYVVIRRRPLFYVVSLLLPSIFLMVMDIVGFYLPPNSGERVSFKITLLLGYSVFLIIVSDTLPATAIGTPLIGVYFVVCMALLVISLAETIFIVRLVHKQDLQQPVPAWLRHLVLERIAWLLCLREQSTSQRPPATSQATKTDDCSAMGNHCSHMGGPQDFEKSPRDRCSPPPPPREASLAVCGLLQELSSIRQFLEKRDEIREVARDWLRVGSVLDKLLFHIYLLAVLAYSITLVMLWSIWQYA

Adenosine receptor A2a = Adenosine receptor A2a (Homo sapiens, UniProt P29274); assay: as §1
Histamine H1 receptor = Histamine H1 receptor (Homo sapiens, UniProt P35367); assay: as §1
[16] = biological target: cGMP-inhibited 3',5'-cyclic phosphodiesterase 3A (Homo sapiens, UniProt Q14432); assay: as §1
[17] = biological target: Alpha-1B adrenergic receptor (Homo sapiens, UniProt P35368); assay: as §1
[18] = biological target: Phosphatidylinositol 4,5-bisphosphate 3-kinase catalytic subunit gamma isoform (Homo sapiens, UniProt P48736); assay: as §1
[19] = biological target: Prostaglandin G/H synthase 2 (Homo sapiens, UniProt P35354); assay: as §1
[20] = biological target: 5-hydroxytryptamine receptor 2A (Homo sapiens, UniProt P28223); assay: as §1
5-hydroxytryptamine receptor 2A, sequence (P28223 whole entry): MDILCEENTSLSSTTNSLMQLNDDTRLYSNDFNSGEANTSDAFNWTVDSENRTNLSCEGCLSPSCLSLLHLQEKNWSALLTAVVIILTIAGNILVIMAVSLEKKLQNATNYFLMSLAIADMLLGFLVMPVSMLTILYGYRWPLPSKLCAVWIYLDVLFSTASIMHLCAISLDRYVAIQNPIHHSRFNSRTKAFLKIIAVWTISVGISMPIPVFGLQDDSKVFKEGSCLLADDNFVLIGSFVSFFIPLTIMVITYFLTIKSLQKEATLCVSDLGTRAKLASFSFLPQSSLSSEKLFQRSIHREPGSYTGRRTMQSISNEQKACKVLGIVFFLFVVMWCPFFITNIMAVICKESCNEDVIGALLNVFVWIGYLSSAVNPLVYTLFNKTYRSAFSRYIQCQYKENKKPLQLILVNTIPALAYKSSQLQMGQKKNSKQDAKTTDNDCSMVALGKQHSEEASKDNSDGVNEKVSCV

Vasopressin V1a receptor = Vasopressin V1a receptor (Homo sapiens, UniProt P37288); assay: as §1
D(2) dopamine receptor [21] = biological target: T5, D(2) dopamine receptor (Homo sapiens, UniProt P14416); assay: as §1
T5 sequence (P14416 whole entry): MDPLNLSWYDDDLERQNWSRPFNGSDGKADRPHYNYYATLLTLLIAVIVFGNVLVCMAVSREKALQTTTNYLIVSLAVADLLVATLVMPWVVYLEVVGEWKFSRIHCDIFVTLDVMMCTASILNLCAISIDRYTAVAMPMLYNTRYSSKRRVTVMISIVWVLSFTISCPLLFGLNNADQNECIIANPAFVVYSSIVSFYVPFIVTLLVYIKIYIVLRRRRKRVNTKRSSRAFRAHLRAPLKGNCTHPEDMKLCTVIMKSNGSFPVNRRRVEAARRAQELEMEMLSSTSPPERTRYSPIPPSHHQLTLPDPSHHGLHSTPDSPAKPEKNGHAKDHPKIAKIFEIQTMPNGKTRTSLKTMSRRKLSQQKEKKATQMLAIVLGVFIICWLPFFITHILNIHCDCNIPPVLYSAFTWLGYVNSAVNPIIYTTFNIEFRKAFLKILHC

[22] = biological target: Muscarinic acetylcholine receptor M2 (Homo sapiens, UniProt P08172); assay: as §1
Muscarinic acetylcholine receptor M2, sequence (P08172 whole entry): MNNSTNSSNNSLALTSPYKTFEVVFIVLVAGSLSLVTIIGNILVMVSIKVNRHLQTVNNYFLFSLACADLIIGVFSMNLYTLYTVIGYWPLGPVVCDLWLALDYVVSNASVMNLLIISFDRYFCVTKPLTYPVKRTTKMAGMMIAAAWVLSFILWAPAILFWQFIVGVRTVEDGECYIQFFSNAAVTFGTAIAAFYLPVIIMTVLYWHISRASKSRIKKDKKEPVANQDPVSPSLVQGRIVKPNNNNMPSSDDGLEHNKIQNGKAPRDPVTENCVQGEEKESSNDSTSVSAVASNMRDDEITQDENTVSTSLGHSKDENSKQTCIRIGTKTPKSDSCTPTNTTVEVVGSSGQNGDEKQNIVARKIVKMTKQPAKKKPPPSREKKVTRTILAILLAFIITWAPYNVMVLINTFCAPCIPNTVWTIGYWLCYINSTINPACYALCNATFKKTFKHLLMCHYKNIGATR

[23] = biological target: 3',5'-cyclic-AMP phosphodiesterase 4B (Homo sapiens, UniProt Q07343); assay: as §1
[24] = biological target: T6, Sodium-dependent serotonin transporter (Homo sapiens, UniProt P31645); assay: as §1
Target sequence in this assay (P31645 whole entry): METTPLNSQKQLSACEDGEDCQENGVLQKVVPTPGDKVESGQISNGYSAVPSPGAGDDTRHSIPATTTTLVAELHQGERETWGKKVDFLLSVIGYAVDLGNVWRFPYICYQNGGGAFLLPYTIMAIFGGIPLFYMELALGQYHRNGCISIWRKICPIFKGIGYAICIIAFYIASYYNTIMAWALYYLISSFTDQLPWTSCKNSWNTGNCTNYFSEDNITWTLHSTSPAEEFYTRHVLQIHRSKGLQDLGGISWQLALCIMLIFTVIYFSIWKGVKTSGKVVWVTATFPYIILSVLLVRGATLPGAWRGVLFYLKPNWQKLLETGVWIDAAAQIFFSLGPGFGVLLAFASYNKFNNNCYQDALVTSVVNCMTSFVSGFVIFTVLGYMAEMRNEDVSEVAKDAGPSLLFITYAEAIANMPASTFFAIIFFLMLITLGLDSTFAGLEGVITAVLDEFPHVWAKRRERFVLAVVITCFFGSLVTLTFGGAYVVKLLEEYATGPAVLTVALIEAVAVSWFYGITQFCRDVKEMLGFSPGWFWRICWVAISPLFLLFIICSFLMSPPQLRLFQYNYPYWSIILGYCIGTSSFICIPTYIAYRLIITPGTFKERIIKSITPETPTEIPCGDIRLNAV

D(1A) dopamine receptor = D(1A) dopamine receptor (Homo sapiens, UniProt P21728); assay: as §1
[25] = biological target: T1, Bromodomain-containing protein 3; assay: TR-FRET assay (BRD3 BD1)
[26] = biological target: Muscarinic acetylcholine receptor M3 (Homo sapiens) (UniProt P20309); conditions: Compound concentration 10.0 uM
[27] = biological target: Alpha-2C adrenergic receptor (Homo sapiens) (UniProt P18825); conditions: Compound concentration 10.0 uM
[28] = as §1
[29] = biological target: Beta-2 adrenergic receptor (Homo sapiens, UniProt P07550); conditions: Compound concentration 10.0 uM
[30] = biological target: T6, Sodium-dependent serotonin transporter; conditions: Compound concentration 10.0 uM
Target sequence in this assay (P31645 whole entry, looked up): as the sequence (P31645 whole entry) above

[31] = biological target: Histone acetyltransferase p300 (Homo sapiens, UniProt Q09472); assay: EP300 DiscoverX BROMOscan
[32] = biological target: T1, Bromodomain-containing protein 3; assay: BRD3(2) DiscoverX BROMOscan
[33] = biological target: Beta-1 adrenergic receptor (Homo sapiens) (UniProt P08588); conditions: Compound concentration 10.0 uM
[34] = biological target: Delta-type opioid receptor (Homo sapiens) (UniProt P41143); conditions: Compound concentration 10.0 uM
[35] = biological target: T3, Kappa-type opioid receptor; conditions: Compound concentration 10.0 uM
[36] = biological target: GABA-A receptor; anion channel (Rattus norvegicus) (UniProt O09028+P15431+P18506+P18508+P19969+P20236+P23574+P23576+P28471+P28473+P30191+P62813+P63079+P63138+Q91ZM7+Q9ES14); conditions: Compound concentration 10.0 uM
[37] = biological target: Histamine H2 receptor (Homo sapiens) (UniProt P25021); conditions: Compound concentration 10.0 uM
[38] = biological target: D(1B) dopamine receptor (Homo sapiens) (UniProt P21918); conditions: Compound concentration 10.0 uM
D(2) dopamine receptor [39] = biological target: T5, D(2) dopamine receptor; conditions: Compound concentration 10.0 uM
Cytochrome P450 3A4 = Cytochrome P450 3A4 (Homo sapiens, UniProt P08684); assay: as §1

T2 sequence (P28222 whole entry): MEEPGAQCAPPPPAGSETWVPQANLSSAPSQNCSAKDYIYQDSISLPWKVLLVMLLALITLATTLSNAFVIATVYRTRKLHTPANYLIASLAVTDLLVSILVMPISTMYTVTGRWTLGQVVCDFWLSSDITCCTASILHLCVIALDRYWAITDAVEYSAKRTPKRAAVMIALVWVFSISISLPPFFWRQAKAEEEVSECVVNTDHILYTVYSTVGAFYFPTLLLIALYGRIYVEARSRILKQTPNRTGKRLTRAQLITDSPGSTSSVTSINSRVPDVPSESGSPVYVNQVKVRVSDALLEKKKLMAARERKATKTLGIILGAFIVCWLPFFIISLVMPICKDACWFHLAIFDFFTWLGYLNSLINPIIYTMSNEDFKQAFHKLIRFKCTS
T1 sequence (Q15059 whole entry): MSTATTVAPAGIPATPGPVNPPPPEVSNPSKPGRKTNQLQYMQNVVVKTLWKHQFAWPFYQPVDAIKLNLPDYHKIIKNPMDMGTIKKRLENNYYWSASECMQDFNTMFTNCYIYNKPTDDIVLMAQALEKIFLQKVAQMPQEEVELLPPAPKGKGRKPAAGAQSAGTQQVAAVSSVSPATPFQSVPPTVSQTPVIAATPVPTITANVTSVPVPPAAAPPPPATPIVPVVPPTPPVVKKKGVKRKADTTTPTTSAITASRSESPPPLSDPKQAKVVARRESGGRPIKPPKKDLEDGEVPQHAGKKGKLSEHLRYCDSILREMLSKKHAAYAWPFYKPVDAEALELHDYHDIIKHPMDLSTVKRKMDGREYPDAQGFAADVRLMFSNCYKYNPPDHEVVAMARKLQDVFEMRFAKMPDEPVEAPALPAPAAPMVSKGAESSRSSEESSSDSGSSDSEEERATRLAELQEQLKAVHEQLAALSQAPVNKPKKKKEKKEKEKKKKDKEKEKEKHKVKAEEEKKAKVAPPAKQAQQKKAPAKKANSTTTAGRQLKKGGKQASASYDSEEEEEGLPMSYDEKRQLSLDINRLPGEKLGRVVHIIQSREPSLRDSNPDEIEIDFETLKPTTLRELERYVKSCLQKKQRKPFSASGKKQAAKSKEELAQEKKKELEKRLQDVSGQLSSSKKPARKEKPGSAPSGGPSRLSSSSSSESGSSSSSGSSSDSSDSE

COCc1nc2cnc3cc(-c4c(C)noc4C)c(OC[C@H]4CCNC4)cc3c2n1[C@H](C)c1ccccc1 [GSK778]
0.005 µM: Kd [2]
10 µM: IC50 [22]
30 µM: Kd [7]
inactive: inhibition [1] -5.03% | inhibition [3] 8.66% | inhibition [5] 4.2% | inhibition [8] 29.3% | inhibition [9] -0.02% | inhibition [10] 10.5% | inhibition [26] -3.35% | inhibition [27] 15.3% | inhibition [29] 18.4% | inhibition [30] 10.7% | inhibition [33] 4.82% | inhibition [34] 38.5% | inhibition [35] 15.5% | inhibition [37] 12.3% | inhibition [38] 31.7% | inhibition (D(2) dopamine receptor [39]) 27.7%
< 4: pMEC [28]
15 µM: Kd (Peregrin)
1 µM: IC50 (Cytochrome P450 3A4)
active: Kd [6] 0.005 µM | IC50 [25] 0.041 µM | inhibition [36] 52.7%
3.16 µM: IC50 (D(2) dopamine receptor [21])
> 100 µM: EC50 (Cannabinoid receptor 2) | IC50 [11] | EC50 [12] | IC50 [12] | EC50 [14] | IC50 [14] | EC50 (Adenosine receptor A2a) | IC50 [16] | IC50 [19] | EC50 (D(2) dopamine receptor [21]) | IC50 (D(1A) dopamine receptor)
0.31 µM: Kd [32]
> 31.6 µM: IC50 (Aurora kinase B) | IC50 [18]
39.8 µM: IC50 [23] | IC50 [24]
3.95 µM (not active): IC50 [4]
> 25.1 µM: IC50 (Histamine H1 receptor) | IC50 [17] | EC50 [20] | IC50 [20]
5.7 µM: Kd [31]
> 50.1 µM: IC50 [13] | EC50 [15] | IC50 [15] | IC50 (Vasopressin V1a receptor) | EC50 [22]
